{"source": "patent US10081812B2", "about": "“D-amino acid-inducible gene expression system for Rhodosporidium and Rhodotorula” (TEMASEK LIFE SCIENCES LABORATORY LIMITED, priority 2015, dated 2018)", "key": {"DAO1 promoter (PDAO1in)": {"test_system": "DAO1 promoter (PDAO1in)", "assay": "Luciferase reporter assay of 2.2 kb intron 1-containing DAO1 promoter (PDAO1in) reporter strains", "type": "cell-based, R. toruloides", "conditions": "for induction of DAO1 promoter by D-amino acid: 70 mM as the sole carbon and nitrogen source in MinABs, 21 h induction, FIG. 8", "protocol": "(§1) For gene induction studies, modified MinAB (MinABs) (28) with carbon source and nitrogen source (NH4NO3) omitted was used as basal medium. Carbon source (10 g/L glucose, 70 mM L-alanine or D-alanine) and nitrogen source (70 mM ammonium sulfate, L-alanine or D-alanine) were supplemented as required. For stress treatments, YPD broth was used as the basal medium and cultured after supplementation of various chemicals, or in harsh conditions. Unless indicated otherwise, cell cultures were conducted in a rotary shaker under 28° C. and 250 rpm.\nYeast strains transformed with PDAOinx::RtLUC2 cassettes were cultured in YPD broth to mid-exponential phase. Cells were water-washed twice and resuspended in MinABs plus 70 mM of either D-alanine or L-alanine to a cell optical density at 600 nm (OD600) of 0.5 and continued culturing at 30° C., 250 rpm for 21 hr. Cells were harvested, washed and resuspended in PBS buffer supplemented with 1 mM DTT, 3 mM β-mercaptoethanol and 1 mM PMSF (pH7.4) supplemented with equal volume of 0.5 mm glass beads (Sigma-Aldrich, USA), and lysed with FastPrep 24™ 5 G (MP Biomedicals, Irvine, Calif., USA) for 40 seconds. The protein concentration and luciferase activity was determined using Bradford method and a commercial luciferase assay kit (Promega, USA) under the supplier's protocol, respectively. All data was measured and acquired with the Infinite M200 plate reader coupled with the iCycler software (version 3.0, Tecan, Salzburg, Austria). All experiments were performed in both biological and statistical triplicates. For determination of relative promoter activity (RPA), luminescence value was subtracted against the blank or negative control (promoter-less strain), normalized against the protein concentration, then normalized against either the values of PGPD1 or the maximum reading.\nTo investigate the effects of carbon and nitrogen sources on promoter activity, 3 strains with 2.2 kb intron 1-containing DAO1 promoter (PDAO1in) knocked in at the CAR2 locus were cultured in the modified MinAB medium (MinABs), which had glucose and ammonium sulfate supplemented to the basal medium MinAB when necessary.\nHere, substrate selectivity of the 2.2 kb DAO1 promoter (PDAO1in) reporter strains was investigated on their inducibility by different D-amino acids."}, "DAO1 mRNA": {"test_system": "DAO1 mRNA", "assay": "qRT-PCR of DAO1 mRNA transcripts in R. toruloides cells", "type": "cell-based", "protocol": "as §1\nTotal RNA was treated with DNase I (Roche Diagnostics) and recovered by ethanol precipitation to remove the trace DNA. cDNA was synthesized using the iScript™ Reverse Transcription Supermix for RT (Bio-Rad, USA) and real-time PCR was conducted in ABI PRISM 7900HT Sequence Detection System (Life Technologies, USA) using the ABI SYBR® Select Master Mix (Life Technologies, USA). PCR conditions were as followed: an initial 50° C. for 2 min and 95° C. denaturation step for 10 min followed by 40 cycles of denaturation at 95° C. for 15 s, annealing at 60° C. for 1 min. Triplicates were used for all qRT-PCR analyses. The data was acquired using the software SDS 2.4 (Applied Biosystems, Life Technologies, USA) and relative gene expression was calculated against the reference gene ACT1 (nucleotide sequence: SEQ ID NO:89; amino acid sequence: SEQ ID NO:90) with the 2-ΔΔCt method through the RQ Manager software v1.2.1 (Applied Biosystems, USA).\nTo investigate the regulation DAO1 gene expression, the mRNA level in cells cultured in YPD medium supplemented with D-alanine or L-alanine levels was quantitated by qRT-PCR using the Actin mRNA (ACT1) as the reference. As expected, DAO1 mRNA expression was negligible when cells were cultured in MinABs medium supplemented with L-alanine or ammonium sulfate as the sole nitrogen source (FIG. 4B)."}, "[1]": {"test_system": "DAO1 mRNA transcripts / Dao1 protein", "conditions": "induction with D-alanine; cited from earlier work"}}, "data": [{"smiles": "C[C@H](O)[C@@H](N)C(=O)O", "note": "[D-threonine]", "values": [{"measurement": "induction of DAO1 promoter by D-amino acid", "setting": "DAO1 promoter (PDAO1in)", "result": "similarly effective"}]}, {"smiles": "N[C@H](Cc1ccccc1)C(=O)O", "note": "[D-phenylalanine]", "values": [{"measurement": "induction of DAO1 promoter by D-amino acid", "setting": "DAO1 promoter (PDAO1in)", "result": "significantly less effective"}]}, {"smiles": "N.N.O=S(=O)(O)O", "note": "[ammonium sulfate]", "values": [{"measurement": "effect on D-alanine-induced DAO1in promoter activity", "setting": "DAO1 promoter (PDAO1in); added to MinABs with 70 mM D-alanine, glucose 10 g/L, ammonium sulfate 70 mM, FIG. 7A", "result": "little effect"}, {"measurement": "effect of concentration on DAO1 promoter activity", "setting": "DAO1 promoter (PDAO1in); glucose 10-100 g/L, ammonium sulfate 5-50 mM, with 70 mM D-alanine, FIGS. 7C and 7D", "result": "only marginal effects"}]}, {"smiles": "N[C@H](CO)C(=O)O", "note": "[D-serine]", "values": [{"measurement": "induction of DAO1 promoter by D-amino acid", "setting": "DAO1 promoter (PDAO1in)", "result": "similarly effective"}]}, {"smiles": "CC(C)[C@@H](N)C(=O)O", "note": "[D-valine]", "values": [{"measurement": "induction of DAO1 promoter by D-amino acid", "setting": "DAO1 promoter (PDAO1in)", "result": "similarly effective"}]}, {"smiles": "OCC(O)CO", "note": "[glycerol]", "values": [{"measurement": "DAO1 transcription compared to that of glucose", "setting": "DAO1 mRNA; substance as the sole carbon source (YPG broth), 6 hour, 28° C., FIG. 4C", "result": "enhance DAO1 transcription"}]}, {"smiles": "CSCC[C@@H](N)C(=O)O", "note": "[D-methionine]", "values": [{"measurement": "induction of DAO1 promoter by D-amino acid", "setting": "DAO1 promoter (PDAO1in)", "result": "significantly less effective"}]}, {"smiles": "C[C@H](N)C(=O)O", "note": "[L-alanine]", "values": [{"measurement": "DAO1 mRNA expression", "setting": "DAO1 mRNA; MinABs medium, substance as the sole nitrogen source, FIG. 4B", "result": "negligible"}, {"measurement": "reduction of luciferase expression", "setting": "DAO1 promoter (PDAO1in); equal level (70 mM) added as the competitor to 70 mM D-alanine, after 21 hr culture, FIG. 7A", "result": "about 5 fold"}]}, {"smiles": "N[C@H](Cc1c[nH]c2ccccc12)C(=O)O", "note": "[D-tryptophan]", "values": [{"measurement": "induction of DAO1 promoter by D-amino acid", "setting": "DAO1 promoter (PDAO1in)", "result": "significantly less effective"}]}, {"smiles": "C[C@@H](N)C(=O)O", "note": "[D-alanine]", "values": [{"measurement": "DAO1 mRNA level relative to control medium", "setting": "DAO1 mRNA; 6-hr after D-alanine supplementation, both glucose and ammonium sulfate omitted, FIG. 4B", "result": "~100", "unit": "fold"}, {"measurement": "DAO1 mRNA level increase", "setting": "DAO1 mRNA; cultured in the presence of 70 mM D-alanine, ACT1 reference, FIG. 4B", "result": "12-18 folds"}, {"measurement": "Dao1 protein share of the soluble intracellular proteins", "setting": "[1]", "result": 1.0, "unit": "%"}, {"measurement": "time of peak of DAO1 mRNA transcripts after induction", "setting": "[1]", "result": "≤ 12", "unit": "h"}, {"measurement": "induction of DAO1 promoter by D-amino acid", "setting": "DAO1 promoter (PDAO1in)", "result": "most preferably induced"}, {"measurement": "luciferase expression among media", "setting": "DAO1 promoter (PDAO1in); MinABs supplemented with 70 mM D-alanine only, FIG. 7A", "result": "Best luciferase expression"}, {"measurement": "concentration effective in driving expression of the reporter gene (as low as)", "setting": "DAO1 promoter (PDAO1in); MinABs with 10 g/L glucose, FIG. 7B", "result": 20, "unit": "mM"}]}, {"smiles": "O=C(O)[C@H]1CCCN1", "note": "[D-proline]", "values": [{"measurement": "induction of DAO1 promoter by D-amino acid", "setting": "DAO1 promoter (PDAO1in)", "result": "similarly effective"}]}, {"smiles": "CC(C)C[C@@H](N)C(=O)O", "note": "[D-leucine]", "values": [{"measurement": "induction of DAO1 promoter by D-amino acid", "setting": "DAO1 promoter (PDAO1in)", "result": "significantly less effective"}]}]}
